The values that follow come from patent US6861390B2, “Derivatives of UK-2A” (priority 2001, dated 2005).

Structures are written as SMILES.

For data set [1], the system named is Leptosphaeria nodorum (LEPTNO). Kind of data set: Glume Blotch of Wheat, whole plant 24 Hour Protectant (T2). The following applies: Parastagonospora nodorum; wheat (cultivar Yuma), sprayed at 100 ppm, inoculated after 24 hours; read-out: T2 LEPTNO in vivo 1 Day Protectant, control of fungal infection.
Data set [2] deals with Phytophthora infestans (PHYTIN). The data set is described as follows: whole plant or invertebrate. Particulars: in Solanum lycopersicum, 24 h, read-out: T3 PHYTIN in vivo 1 Day Protectant, control of fungal infection.
Data set [3] deals with Puccinia recondita (PUCCRT). The data set is described as follows: Brown Rust of Wheat, whole plant 24 Hour Protectant (T5). Particulars: wheat (cultivar Yuma), sprayed at 100 ppm, inoculated after 24 hours, read-out: T5 PUCCRT in vivo 1 Day Protectant, control of fungal infection.
Data set [4] relates to Stagonospora nodorum (Leptosphaeria nodorum, LEPTNO). Kind of data set: microbe, parasite or virus in culture. The class given is cell-based. The following applies: Parastagonospora nodorum, read-out: T7 LEPTNO in vitro Growth Inhibition.
Data set [5] relates to Phytophthora infestans (PHYTIN). The data set is described as follows: microbe, parasite or virus in culture. Type of data set: cell-based. Particulars: in Secale cereale, read-out: T8 PHYTIN in vitro Growth Inhibition.
Data set [6] relates to Magnaporthe grisea (Pyricularia oryzae, PYRIOR). The data set is described as follows: microbe, parasite or virus in culture. Type of data set: cell-based. The following applies: read-out: T9 PYRIOR in vitro Growth Inhibition.
Data set [7] deals with Rhizoctonia solani (RHIZSO). The data set is described as follows: microbe, parasite or virus in culture. Type of data set: cell-based. Particulars: read-out: T10 RHIZSO in vitro Growth Inhibition.
The test system of data set [8] is Mycosphaerella graminicola (Septoria tritici, SEPTTR). Kind of data set: microbe, parasite or virus in culture. The class given is cell-based. The following applies: Zymoseptoria tritici, read-out: T11 SEPTTR in vitro Growth Inhibition.
The subject of the next data set is Ustilago maydis (USTIMA). Kind of data set: microbe, parasite or virus in culture. The class given is cell-based. Particulars: Mycosarcoma maydis, read-out: T12 USTIMA in vitro Growth Inhibition.
In data set [9] the test system is Erysiphe graminis (ERYSGT). The data set is described as follows: Powdery Mildew of Wheat, whole plant 24 Hour Protectant (T1). The following applies: Blumeria graminis, in Triticum aestivum, read-out: T1 ERYSGT in vivo 1 Day Protectant, control of fungal infection.
Description: Compound formulation was accomplished by dissolving technical materials in acetone, with serial dilutions then made in acetone to obtain desired concentrations. Final treatment volumes were obtained by adding 9 volumes 0.01% Triton X-100.
Powdery Mildew of Wheat (Erysiphe graminis—ERYSGT) (24 Hour Protectant): Wheat (cultivar Monon) was grown in a soilless peat-based potting mixture (“Metromix”) and mineral soil (50/50 mix) until the seedlings were 10-20 cm tall. These plants were then sprayed to run-off with the test compound at a rate of 100 ppm. After 24 hours the test plants were inoculated by dusting with conidia from powdery mildew infected wheat plants. The plants were then transferred to the greenhouse until disease developed on the untreated control plants.
Data set [10] deals with Septoria tritici (SEPTTR). The data set is described as follows: Leaf Blotch of Wheat, whole plant 24 Hour Protectant (T6). The following applies: Zymoseptoria tritici; wheat (cultivar Monon), sprayed at 100 ppm, inoculated after 24 hours; read-out: T6 SEPTTR in vivo 1 Day Protectant, control of fungal infection.

As usually defined, the inhibition is the share of the control response that was lost under treatment. What is called melting point is the temperature, or range, at which the solid turns liquid.

The compound `COCOc1c(OC)ccnc1C(=O)N[C@H]1COC(=O)[C@H](Cc2ccccc2)[C@@H](OC(=O)C(C)C)[C@H](C)OC1=O` [Compound 4] displayed a melting point of 146 to 147 °C. Moreover, in data set [1], the pest or weed control at 100 ppm lay within 75 to 100%. Further, in data set [2], the pest or weed control at 100 ppm is below 25%. The pest or weed control at 100 ppm in data set [3] lay in the range of 75 to 100%. For the same compound, the inhibition at 25 ppm in [4] was above 80%. Besides, the inhibition at 25 ppm in data set [5] is below 80%. Moreover, in [6], the inhibition at 25 ppm is above 80%. The inhibition at 25 ppm in [7] is below 80%. Besides, the inhibition at 25 ppm in [8] is below 80%. Besides, in the data set on Ustilago maydis (USTIMA), the inhibition at 25 ppm is below 80%. The pest or weed control at 100 ppm in [9] fell in the range of 25 to 74%.
`COc1ccnc(C(=O)N[C@H]2COC(=O)[C@H](Cc3ccccc3)[C@@H](OC(=O)C(C)C)[C@H](C)OC2=O)c1OCOCc1ccccc1` [Compound 10] had a melting point of 56 to 60 °C. Further, the pest or weed control at 100 ppm in data set [1] lay within 75 to 100%. Further, the pest or weed control at 100 ppm in [2] was below 25%. Besides, in [3], the pest or weed control at 100 ppm lay in the range of 75 to 100%. Besides, the inhibition at 25 ppm in [4] is above 80%. For the same compound, the inhibition at 25 ppm in data set [5] was above 80%. Besides, the inhibition at 25 ppm in [6] is below 80%. For the same compound, the inhibition at 25 ppm in [7] was below 80%. In addition, the inhibition at 25 ppm in [8] is above 80%. Further, the inhibition at 25 ppm in the data set with Ustilago maydis (USTIMA) was below 80%. In addition, the pest or weed control at 100 ppm in data set [9] was below 25%.
Consider `COc1ccnc(C(=O)N[C@H]2COC(=O)[C@H](Cc3ccccc3)[C@@H](OC(=O)C(C)C)[C@H](C)OC2=O)c1OCSC` [Compound 18], for which the melting point was 146 to 148 °C. Also, in data set [1], the pest or weed control at 100 ppm is 75 to 100%. In [2], the pest or weed control at 100 ppm was below 25%. In addition, the pest or weed control at 100 ppm in data set [3] was in the range of 75 to 100%. For the same compound, the inhibition at 25 ppm in data set [4] is above 80%. For the same compound, the inhibition at 25 ppm in [5] was below 80%. Further, in data set [6], the inhibition at 25 ppm is above 80%. Besides, the inhibition at 25 ppm in [7] is above 80%. Further, the inhibition at 25 ppm in [8] was above 80%. Besides, the inhibition at 25 ppm in the data set on Ustilago maydis (USTIMA) is below 80%. Besides, the pest or weed control at 100 ppm in data set [9] was below 25%.
The compound `COc1ccnc(C(=O)N[C@H]2COC(=O)[C@H](Cc3ccccc3)[C@@H](OC(=O)C(C)C)[C@H](C)OC2=O)c1OCSc1ccccc1` [Compound 19] returned a melting point of 133 to 135 °C. Moreover, in data set [1], the pest or weed control at 100 ppm was in the range of 75 to 100%. Moreover, the pest or weed control at 100 ppm in [2] is below 25%. In data set [3], the pest or weed control at 100 ppm was in the range of 75 to 100%. Besides, the inhibition at 25 ppm in [4] is above 80%. Moreover, the inhibition at 25 ppm in data set [5] was below 80%. Further, the inhibition at 25 ppm in data set [6] is above 80%. For the same compound, the inhibition at 25 ppm in data set [7] is above 80%. Also, in data set [8], the inhibition at 25 ppm was above 80%. In addition, in the data set with Ustilago maydis (USTIMA), the inhibition at 25 ppm is below 80%. In data set [9], the pest or weed control at 100 ppm was below 25%.
In turn, `CCCO[C@H]1[C@H](C)OC(=O)[C@@H](NC(=O)c2nccc(OC)c2OCOC(C)=O)COC(=O)[C@@H]1Cc1ccccc1` [Compound 51] had a melting point of 65 to 120 °C. Also, the pest or weed control at 100 ppm in [1] was in the range of 75 to 100%. The pest or weed control at 100 ppm in [2] was below 25%. For the same compound, in data set [3], the pest or weed control at 100 ppm is 75 to 100%. Moreover, the inhibition at 25 ppm in data set [4] is above 80%. Also, in data set [5], the inhibition at 25 ppm is below 80%. Moreover, the inhibition at 25 ppm in [6] is above 80%. In addition, the inhibition at 25 ppm in [7] was above 80%. Also, the inhibition at 25 ppm in data set [8] is above 80%. Moreover, the inhibition at 25 ppm in the data set with Ustilago maydis (USTIMA) is below 80%. For the same compound, the pest or weed control at 100 ppm in data set [9] was 75 to 100%.
As for `CCCO[C@H]1[C@H](C)OC(=O)[C@@H](NC(=O)c2nccc(OC)c2OCOC(=O)COCC)COC(=O)[C@@H]1Cc1ccccc1` [Compound 60], the pest or weed control at 100 ppm in data set [1] was 75 to 100%; in data set [2] it was below 25%; in data set [3], 75 to 100%; in data set [10] it was 75 to 100%; in [9], 75 to 100%. In addition, the inhibition at 25 ppm in data set [4] is above 80%; in data set [5] it was above 80%; in data set [6], above 80%; in [7], below 80%; in [8], above 80%; in the data set on Ustilago maydis (USTIMA), above 80%.
Consider `COc1ccnc(C(=O)N[C@H]2COC(=O)[C@H](Cc3ccccc3)[C@@H](OCC(C)C)[C@H](C)OC2=O)c1OCOC(=O)C1CCCC1` [Compound 61], for which the pest or weed control at 100 ppm in data set [1] was 75 to 100%; in [2], below 25%; in data set [3], 75 to 100%; in data set [10], 75 to 100%; in data set [9], 75 to 100%. For the same compound, the inhibition at 25 ppm in [4] is above 80%; in data set [5], below 80%; in [6], above 80%; in [7], below 80%; in data set [8], above 80%; in the data set with Ustilago maydis (USTIMA) it was above 80%.
For the compound `CCCO[C@H]1[C@H](C)OC(=O)[C@@H](NC(=O)c2nccc(OC)c2OCOC(=O)C2CCCC2)COC(=O)[C@@H]1Cc1ccccc1` [Compound 62], the pest or weed control at 100 ppm was 75 to 100% in data set [1]; below 25% in data set [2]; 75 to 100% in data set [3]; 75 to 100% in data set [10]; 75 to 100% in data set [9]. Further, the inhibition at 25 ppm was above 80% in data set [4]; below 80% in [5]; below 80% in [6]; below 80% in data set [7]; above 80% in data set [8]; above 80% with Ustilago maydis (USTIMA).
Take `CCCC(=O)OCOc1c(OC)ccnc1C(=O)N[C@H]1COC(=O)[C@H](Cc2ccccc2)[C@@H](OCC(C)C)[C@H](C)OC1=O` [Compound 63]: the pest or weed control at 100 ppm is 75 to 100% in [1]; below 25% in data set [2]; 75 to 100% in data set [3]; 75 to 100% in data set [10]; 75 to 100% in data set [9]. In addition, the inhibition at 25 ppm is above 80% in data set [4]; below 80% in data set [5]; above 80% in [6]; below 80% in [7]; above 80% in data set [8]; below 80% in the data set on Ustilago maydis (USTIMA).
Take `CCCO[C@H]1[C@H](C)OC(=O)[C@@H](NC(=O)c2nccc(OC)c2OCOC(=O)CCC)COC(=O)[C@@H]1Cc1ccccc1` [Compound 64]: the pest or weed control at 100 ppm in data set [1] is 75 to 100%; in data set [2], below 25%; in data set [3], 75 to 100%; in [10] it was 75 to 100%; in data set [9] it was 75 to 100%. In addition, the inhibition at 25 ppm is above 80% in data set [4]; below 80% in data set [5]; above 80% in data set [6]; below 80% in [7]; above 80% in [8]; below 80% with Ustilago maydis (USTIMA).
`CCOCC(=O)OCOc1c(OC)ccnc1C(=O)N[C@H]1COC(=O)[C@H](Cc2ccccc2)[C@@H](OCSC)[C@H](C)OC1=O` [Compound 72]: the pest or weed control at 100 ppm was 75 to 100% in data set [1]; below 25% in data set [2]; 75 to 100% in data set [3]; 25 to 74% in [10]; 25 to 74% in data set [9]. In addition, the inhibition at 25 ppm in data set [4] is above 80%; in [5] it was below 80%; in data set [6] it was above 80%; in data set [7], below 80%; in [8], above 80%; in the data set on Ustilago maydis (USTIMA), above 80%.
As for `COc1ccnc(C(=O)N[C@H]2COC(=O)[C@H](Cc3ccccc3)[C@@H](OCSC)[C@H](C)OC2=O)c1OCOC(=O)C1CCCC1` [Compound 73], the pest or weed control at 100 ppm was 75 to 100% in data set [1]; below 25% in data set [2]; 75 to 100% in data set [3]; 75 to 100% in data set [10]; 25 to 74% in data set [9]. The inhibition at 25 ppm in data set [4] is above 80%; in [5], below 80%; in data set [6], above 80%; in [7], below 80%; in data set [8] it was above 80%; in the data set on Ustilago maydis (USTIMA), above 80%.
For the compound `COCCOCC(=O)OCOc1c(OC)ccnc1C(=O)N[C@H]1COC(=O)[C@H](Cc2ccccc2)[C@@H](OCSC)[C@H](C)OC1=O` [Compound 74], the pest or weed control at 100 ppm in data set [1] was 75 to 100%; in data set [2] it was below 25%; in data set [3], 75 to 100%; in data set [10], 25 to 74%; in [9], 25 to 74%. Further, the inhibition at 25 ppm was above 80% in [4]; below 80% in data set [5]; above 80% in [6]; below 80% in [7]; above 80% in [8]; above 80% in the data set on Ustilago maydis (USTIMA).
